What was measured:
hearts of diabetic mice = assay: Lipid and protein oxidation and DNA damage in hearts of diabetic mice; format: in vivo
Procedure: FIGS. 4A-4K. Cobinamide Rescues Flies from Paraquat Poisoning and Prevents Abnormal Lipid and Protein Oxidation, DNA Damage, and Fibrosis in the Hearts of Diabetic Mice. FIG. 4A. At time zero, 10 fruit flies (D. melanogaster) were transferred to vials with food to which either phosphate-buffered saline (PBS), 0.8 mM of the indicated drugs, 20 mM paraquat (PQ), or 20 mM paraquat with 0.8 mM of the indicated drugs had been added. The number of live flies was counted each day for 7 d. The experiment was repeated seven times, for a total of 70 flies per condition. The percent surviving flies was calculated; error bars represent standard deviations and are shown in one direction only for sake of clarity. FIGS. 4B-4K. […] The amount of 8-isoprostane (FIG. 4B) was measured by ELISA, protein oxidation (FIGS. 4C-4D) was assessed by immunoblotting, and nitrotyrosine content (FIGS. 4E-4F) was assessed by immunohistochemistry. DNA damage was assessed by 8-OH-deoxyguanosine staining (FIGS. 4G-4H) and a long amplicon qPCR-based assay (FIG. 4I). Cardiac fibrosis (FIGS. 4J-4K) was assessed by Mallory trichrome staining, which stains collagen blue. […] For Panels C, D, and I, frozen heart samples were selected randomly from each of the four groups and were analyzed. For Panel D, blots were analyzed by densitometric scanning using Li-Cor Odyssey software, with the density of each lane normalized to the actin band. […]

[1] = tested on: streptozotocin diabetic mice; assay: Fasting blood glucose and intraperitoneal glucose tolerance test; format: in vivo; conditions: fasting blood glucose and IPGTT after three months
Description: The water was replenished twice a week.
Over the three-month treatment period, the non-diabetic mice gained an average of 4.1±0.8 g. while the diabetic mice lost an average of 0.3 g, with wide variation in weight change among the latter mice.

[2] = mouse, in vivo
Procedure: Male C57BL/6NHsd mice (20 weeks old) were housed three to four animals per cage in a temperature-controlled environment with a 12-h light/dark cycle and fed standard rodent chow with ad libitum access to food and water. After one week of acclimatization, mice weighing 30±3 g were injected intraperitoneally for five consecutive days with either saline (n=20) or 50 mg/kg streptozotocin (n=20) 69. […] The 16 diabetic mice and a corresponding number of the saline-injected, non-diabetic mice were split randomly in half to receive either plain drinking water or histidyl-cobinamide in the drinking water. The four groups of animals are referred to as: diabetic vehicle (D-Veh); diabetic, cobinamide-treated (D-Cbi); non-diabetic, vehicle (ND-Veh); and non-diabetic, cobinamide-treated (ND-Cbi). The histidyl-cobinamide concentration was 1 mM for the ND-Cbi mice, but because the diabetic mice drank more than the non-diabetic mice, the cobinamide concentration for the D-Cbi mice was decreased accordingly. The water was replenished twice a week.
After three months of treatment, the mice were weighed, fasted for 6 h, and then underwent an intraperitoneal glucose tolerance test (IPGTT) using 2 g/kg of a 20% glucose solution. Blood glucose concentrations were measured just before the glucose injection (time 0, fasting specimen) and at 15, 30, 60, and 120 min following the injection. […] Two days later, the mice were euthanized by inducing deep anesthesia with 200 mg/kg ketamine and 40 mg/kg xylazine administered by intraperitoneal injection, followed by exsanguination via an open cardiac puncture.
Type I diabetic mice were generated using streptozotocin, and then provided cobinamide in the drinking water for three months.

[3] = tested on: H9c2 rat embryonal cardiomyocytes; assay: Mitochondrial superoxide content, MitoSOX Red fluorescence; format: cell-based
Procedure: FIGS. 3A-3H. […] FIGS. 3A-3B. […] FIG. 3A. […] FIG. 3B. […] FIGS. 3C-3D. […] FIG. 3D. […] FIGS. 3E-3F. […] FIG. 3E. Representative blots are shown. […] FIG. 3F. […] FIG. 3G. […] FIG. 3H.
H9c2 cells were plated on glass cover slips in 24 well dishes, and 16 h later the medium was changed to phenol red-free DMEM supplemented with 20 mM Hepes, 0.1% fetal bovine serum, and 0.5% bovine serum albumin. […] MitoSOX Red is a dihydroethidium derivative containing triphenyl-phosphonium, which localizes it to respiring mitochondria. Its reaction with O2·^− yields 2-hydroxy-mitoethidium (2-OH-Mito-E″), whereas its reaction with other oxidative species yields mitoethidium (Mito-E^+)^67. These two oxidative derivatives have overlapping fluorescence spectra, but they can be distinguished by high performance liquid chromatography (HPLC)^68. Rotenone increased 2-OH-Mito-E^+ about two-fold, without increasing Mito-E^+. Thus, any increased fluorescence observed on treating cells with rotenone could be ascribed to an increase in 2-OH-Mito-E^+, and decreased fluorescence by an anti-oxidant in rotenone-treated cells was likely from a decrease in 2-OH-Mito-E^+.
The cells were then washed once with PBS, placed back in the DMEM experimental medium, and incubated with the indicated drugs for 30 min. At the end of the incubation period, nuclei of both the MitoSOX Red- and JC-1-treated cells were stained with […] 4′,6-diamidino-2-phenyl-indole (DAPI) for 3 min, washed once with PBS, and returned to the DMEM experimental medium. The cover slips were removed from the wells, mounted in the DMEM experimental medium, and red (MitoSOX Red and JC-1 aggregates), green (JC-1 monomers), and blue (DAPI) fluorescence intensity was assessed using a Keyence BZ-X700 fluorescence microscope at the following paired excitation/emission wavelengths, respectively: 560/630, 490/525, and 360/460 nm.
To assess if cobinamide reduces oxidative stress in cells and to compare its […] efficacy to that of cobalamin, imisopasem, and MnTBAP, several sets of experiments were performed. First, whether cobinamide reduces mitochondrial-generated O2·^− was evaluated using the fluorescent probe MitoSOX Red. H9c2 rat embryonal cardiomyocytes were treated with rotenone, an inhibitor of complex I, to increase mitochondrial O2·^−. […] Monitoring the UV-visible spectrum of cobinamide is a sensitive means to assess ligand binding^38.

[4] = second order; literature values; cited from earlier work
[5] = physiological conditions; 50 mM potassium phosphate pH 7.4, three-fold molar excess of reductant
Procedure: H9c2 cells were incubated for 30 min with vehicle, 2.5 μM cobinamide, or 5 μM rotenone, the latter in the absence or presence of 2.5 μM cobinamide, imisopasem, MnTBAP, or cobalamin; 5 μM MitoSOX was added during the last 10 min. The cells were incubated with 1 mg/ml DAPI for 3 min to counterstain nuclei, and then visualized under a fluorescence microscope. […] Equal-sized representative areas for each condition are shown for MitoSOX staining (red fluorescence) and the same area showing merged MitoSOX and DAPI staining. […] The amount of red fluorescence was quantified by Image J analysis. Data are the mean±SD of three independent experiments; in each experiment two separate equal-sized areas were analyzed containing ˜75 cells per area. […] H9c2 cells were incubated for 10 min with 10 μM JC-1, washed once with PBS, and then incubated for 30 min with vehicle, 2.5 μM cobinamide, or 5 μM rotenone in the absence or presence of 2.5 μM of the indicated drugs as described in Panels A, B. FIG. 3C. Cells were visualized under a fluorescence microscope and equal-sized representative areas of each condition are shown, with red and green fluorescence shown for the same area. […] The amount of red and green fluorescence was quantified by Image J analysis and the red to green ratio was calculated. The slides were analyzed by an operator who was blinded to the specific conditions. Data are the mean±SD of three independent experiments; in each experiment two separate equal-sized areas were analyzed containing ˜75 cells per area. […] Blots from four independent experiments were analyzed by densitometric scanning (Li-Cor Odyssey software) in a range where band intensity was linear. The ratio of the pJNK band to GAPDH was calculated, and the results normalized to control untreated cells. […] The UV-visible spectrum of Chi(III) in 50 mM potassium phosphate buffer, pH 7.4 was recorded before (black line) and immediately after adding a three-fold molar excess of ascorbate (blue line), cysteine (teal line), or reduced glutathione (GSH, pink line). […]

## C/C1=C2/[N-][C@H]([C@H](CC(N)=O)[C@@]2(C)CCC(=O)NC[C@@H](C)O)[C@]2(C)N=C(/C(C)=C3N=C(/C=C4N=C1[C@@H](CCC(N)=O)C\4(C)C)[C@@H](CCC(N)=O)[C@]\3(C)CC(N)=O)[C@@H](CCC(N)=O)[C@]2(C)CC(N)=O.[Co+3] [cobinamide, aquohydroxo-cobinamide]
Hearts of diabetic mice; 8-isoprostane, protein carbonylation, nitrotyrosine, 8-OH-deoxyguanosine, long-amplicon PCR, three months histidyl-cobinamide in drinking water
  All markers of oxidative stress and DNA damage in hearts of diabetic mice: significantly reduced all markers of oxidative stress and DNA damage to values similar to those found in the non-diabetic mice
Hearts of diabetic mice; nitrotyrosine immunohistochemistry
  Tyrosine nitration in hearts of diabetic mice: reduced
[1]
  Glucose intolerance versus mice not receiving drug: same degree of glucose intolerance
[2]
  Plasma cobinamide concentration, diabetic mice: 0.55 ± 0.36 µM
  Plasma cobinamide concentration, non-diabetic mice: 0.11 ± 0.07 µM
[3]; H9c2, 5 μM rotenone 30 min, drugs at 2.5 μM
  MitoSOX red fluorescence in rotenone-treated cells: markedly reduced fluorescence
[3]; H9c2, vehicle-treated cells without rotenone, 2.5 μM
  MitoSOX red fluorescence, drug alone: no change
[4]
  Rate constant, reaction with nitric oxide (·NO), published: 2.4 × 10^8 (51) M^−1 s^−1
[5]
  Reduction by ascorbate, cysteine and reduced glutathione (GSH): readily reduced to Cbi(II)
